Assay results: patent publication US6630124B1, “Combination therapy with VIP antagonist” (Ramot-University Authority for Applied Research and …, priority 1998, dated 2003)
Where no end group is shown, it is not given here. [ ]: non-standard residue; d: D form. The star is where a group is joined. Stearoyl = CCCCCCCCCCCCCCCCCC(=O)*; Nle = CCCC[C@H](N)C(=O)O

B1: (N-Stearyl-Norleucine17) VIPhybrid (peptide)
peptide: Stearoyl-KPRRPYTDNYTRLRKQ[Nle]AVKKYLNSILN-NH2
SMILES: CCCCCCCCCCCCCCCCCC(=O)N[C@@H](CCCCN)C(=O)N1CCC[C@H]1C(=O)N[C@@H](CCCNC(=N)N)C(=O)N[C@@H](CCCNC(=N)N)C(=O)N1CCC[C@H]1C(=O)N[C@@H](Cc1ccc(O)cc1)C(=O)N[C@H](C(=O)N[C@@H](CC(=O)O)C(=O)N[C@@H](CC(N)=O)C(=O)N[C@@H](Cc1ccc(O)cc1)C(=O)N[C@H](C(=O)N[C@@H](CCCNC(=N)N)C(=O)N[C@@H](CC(C)C)C(=O)N[C@@H](CCCNC(=N)N)C(=O)N[C@@H](CCCCN)C(=O)N[C@@H](CCC(N)=O)C(=O)N[C@@H](CCCC)C(=O)N[C@@H](C)C(=O)N[C@H](C(=O)N[C@@H](CCCCN)C(=O)N[C@@H](CCCCN)C(=O)N[C@@H](Cc1ccc(O)cc1)C(=O)N[C@@H](CC(C)C)C(=O)N[C@@H](CC(N)=O)C(=O)N[C@@H](CO)C(=O)N[C@H](C(=O)N[C@@H](CC(C)C)C(=O)N[C@@H](CC(N)=O)C(N)=O)[C@@H](C)CC)C(C)C)[C@@H](C)O)[C@@H](C)O
notes: Synthetic lipophilic VIP antagonist; also called (SN)VIPhybrid; SNVIPhybrid

Tests used:
[1] = test system: cell lines derived from colon cancer and prostate cancer; assay: MTS colorimetric proliferation assay, VIP antagonist with chemotherapeutic agents (Example I); assay type: cell-based; settings: combination with stearyl-Nle17-neurotensis 6-11 VIP 7-28
Description: Assays were performed with cell lines derived from colon cancer and prostate cancer. Proliferation was assessed using the MTS colorimetric assay of mitochondrial function for living cells. The VIP antagonist (stearyl-Nle17-neurotensis 6-11 VIP 7-28) was used.

[2] = test system: NCI-H727 non-small cell lung cancer (carcinoid); assay: MTS cell proliferation assay, SNH and chemotherapy; assay type: cell-based; settings: for reduction of the IC50 of the chemotherapeutic agent by SNH: 5 μM SNH, NCI-H727; for nature of the combined effect with SNH: combination with SNH
Description: NCI-H727 and LNCaP were grown in RPMI 1640 medium supplemented with 10% heat inactivated FCS, L-glutamine and antibiotics. HT-29 and CT-26 were grown in DMEM medium supplemented with 10% heat-inactivated FCS (fetal calf serum), L-glutamine and antibiotics. The cells were cultured in 5% CO2/95% air at […] and used during their exponential growth phase. Routinely, the cells which are adherent, were split when a subconfluent monolayer was formed. In different experiments, various concentration of FCS were used. For growth inhibition experiments, subconfluent adherent cells were washed with PBS and treated with trypsin/versene. The cells were pelleted and resuspended in medium to a final concentration of 75,000 cells/mL for NCI-H727. 50,000 cells/mL for LNCaP and HT-29 and 25000 cells/mL for CT-26. These different concentrations were used in order to avoid confluence in the wells at the end of the experiment and correspond to the different doubling times of the cell lines. On day 0, cells suspensions […] were dispensed using a multi-channel pipet into the individual wells of a 96-well tissue culture plate (Nuncion, Nunc Brand Products). […] Cells were incubated for 24 hours in a humidified atmosphere of 95% air/5% CO2 at 37° C. before treatment. On day 1, the cells were treated with different drugs and schedules and maintained under the same conditions. On day 4, viable cell number was determined by a modified MTT assay i.e., MTS non-radioactive cell proliferation assay (Promega). […] Results were finally expressed as percentage of the control, which was obtained from the samples with no drug treatment. Dose-response curves were plotted using a Sigma-Plot software and statistically analyzed using Student test. To determine the effect of the lipophilic VIP antagonist SNH on cell proliferation, cells plated in 96-well microplates for 24 hours as described, were treated with various concentrations of SNH. The peptide was diluted in PBS and […] of the peptide solution was added to each well for a final concentration of the peptide between 10^−510^−9 M. The solvent was added to the control wells. […] A dose-response curve was obtained at concentrations ranging from 2 μM-10 μM (see, FIG. 2). […] The effects of an 8 hours treatment were slightly less, showing that most of the effect is in the initial hours of exposure and much more dose than time dependent. […] For the experiments with the combinations of VIP antagonists and chemotherapeutic agents, on day 0, the cells were plated for 24 hours in medium supplemented with 5% FCS. On day 1, the peptide was added to the wells followed 1 hour later by the chemotherapeutic agents. […] The chemotherapeutic drugs were tested over 7 concentrations, covering as much as possible of the dose response curve of each individual drug. 24 hours later, the medium was exchanged and the cells incubated under the same conditions for another 48 hours. On day 4 the number of viable cells was determined by MTS assay.

[3] = molecular target: T1, VIP receptor on U-87 cells (UniProt P32241 31-457, limits assumed); assay: competition with 125I-VIP for binding to U-87 cells
T1 construct: whole, on cells; also called VIP1 receptor; VPAC1 receptor
T1 sequence (looked up): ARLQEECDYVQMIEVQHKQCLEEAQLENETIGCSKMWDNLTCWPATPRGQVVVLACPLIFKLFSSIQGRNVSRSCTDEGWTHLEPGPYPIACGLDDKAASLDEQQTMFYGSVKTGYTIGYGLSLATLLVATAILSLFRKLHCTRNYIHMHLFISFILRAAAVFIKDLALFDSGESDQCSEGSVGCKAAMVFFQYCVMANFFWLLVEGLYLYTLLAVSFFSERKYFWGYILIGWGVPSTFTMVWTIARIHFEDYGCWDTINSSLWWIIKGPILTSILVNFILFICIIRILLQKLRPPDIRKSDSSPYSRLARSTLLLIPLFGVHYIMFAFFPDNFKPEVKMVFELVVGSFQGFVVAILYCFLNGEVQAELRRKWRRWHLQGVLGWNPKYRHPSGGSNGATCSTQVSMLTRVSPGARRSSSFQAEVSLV

Row | Molecule | effect of the combination with the VIP antagonist [1] | reduction of the IC50 of the chemotherapeutic agent by SNH [2] | nature of the combined effect with SNH [2] | enhancement of the antiproliferative activity of the chemotherapeutic agent by the lipophilic VIP antagonist [1] | IC50 [3]
1 | N.N.[Cl][Pt][Cl] [cisplatin, cis-dichlorodiammineplatinum II] | synergistic | 4 fold | synergistic | – | –
2 | CCC1=C[C@@H]2CN(C1)Cc1c([nH]c3ccccc13)[C@@](C(=O)OC)(c1cc3c(cc1OC)N(C)[C@H]1[C@@](O)(C(=O)OC)[C@H](OC(C)=O)[C@]4(CC)C=CCN5CC[C@]31[C@@H]54)C2 [navelbine] | synergistic | at least 2 fold | synergistic | enhance the antiproliferative activity | –
3 | COc1cccc2c1C(=O)c1c(O)c3c(c(O)c1C2=O)C[C@@](O)(C(=O)CO)C[C@@H]3O[C@H]1C[C@H](N)[C@H](O)[C@H](C)O1 [doxorubicine] | synergistic | – | less pronounced | enhance the antiproliferative activity | –
4 | Cl.Nc1ccn([C@@H]2O[C@H](CO)[C@@H](O)C2(F)F)c(=O)n1 [gemcitabine, 2′-deoxy-2′,2′-difluorocytidine hydrochloride] | – | – | only additive | enhance the antiproliferative activity | –
5 | KPRRPYTDNYTRLRKQMAVKKYLNSILN (ends and bridges not checked) [Neurotensis 6-11 VIP7-28 (VIPhybrid)] | – | – | – | – | 70 nM
6 | B1 | – | – | – | – | 500 nM
